In patent US6310095A, “Inhibitors of protein isoprenyl transferases” (University of Pittsburgh, priority 1998, dated 2001):
Structures can show the parent of a compound that is named as a salt.

Each compound was assayed against T1, protein farnesyltransferase (Rattus norvegicus, UniProt Q02293+Q04631) (assay: in vitro inhibition of protein farnesyltransferase (scintillation proximity assay, biotin-K Ras B fragment)). Settings: at 1 × 10^-5 M.
T1 construct: Rat brain protein farnesyltransferase activity is measured; from tissue; host or cells: rat brain; purified according to Reiss et al., Cell 62:81-88 (1990), steps one through three
Assay type: biochemical
How it was run: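 Rat brain enzyme, purified through three steps, in a scintillation proximity assay kit with biotin-K Ras B fragment substrate at 0.1 mM final. Value is % inhibition of farnesylation.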

SMILES	inhibition at 10 µM
COc1ccc(C(=O)Nc2ccc(C(=O)N[C@@H](CCSC)C(=O)O)c(-c3ccccc3)c2)c(O)c1 [Example 758]	46%
Cc1ccccc1-c1cc(CN(Cc2ccccc2)c2cccnc2)ccc1C(=O)N[C@@H](CCS(C)(=O)=O)C(=O)O [Example 759, (2S)-2-N-[4-(N-benzyl-N-3-pyridylaminomethyl)-2-(2-methylphenyl)benzoyl]amino-4-methanesulfonylbutanoic acid]	49%

The next lines start with the values.

inhibition at 10 µM	SMILES
47%	COc1cc(I)c(C(=O)Nc2ccc(C(=O)N[C@@H](CCSC)C(=O)O)c(-c3ccccc3)c2)cc1OC [Example 756]
58%	CSCC[C@H](NC(=O)c1ccc(NC(=O)Cc2ccccc2[N+](=O)[O-])cc1-c1ccccc1)C(=O)O [Example 757]

Same assay, conditions: at 1 × 10^-6 M

SMILES	% inhibition of farnesyltransferase
CSCC[C@H](NC(=O)c1ccc(S(=O)(=O)N(Cc2ccccc2)c2ccccc2)cc1-c1ccccc1C)C(=O)[O-].[Li+] [Example 768]	67%
CSCC[C@H](NC(=O)c1ccc(S(=O)(=O)NC2CCN(Cc3ccccc3)CC2)cc1-c1ccccc1C)C(=O)O [Example 773]	41%
CSCC[C@H](NC(=O)c1ccc(S(=O)(=O)NCCN2CCCCC2)cc1-c1ccccc1C)C(=O)O [Example 774]	48%
COc1ccc(CCNS(=O)(=O)c2ccc(C(=O)N[C@@H](CCSC)C(=O)O)c(-c3ccccc3C)c2)cc1OC [Example 776]	36%
CSCC[C@H](NC(=O)c1ccc(-c2ccccc2-c2ccccc2)cc1-c1ccccc1C)C(=O)[O-].[Li+] [Example 786]	34%
CSCC[C@H](NC(=O)c1ccc(-c2cccc(-c3ccccc3)c2)cc1-c1ccccc1C)C(=O)[O-].[Li+] [Example 787]	70%
CSCC[C@H](NC(=O)c1ccc(-c2ccc(-c3ccccc3)cc2)cc1-c1ccccc1C)C(=O)[O-].[Li+] [Example 788]	44%
CSCC[C@H](NC(=O)c1ccc(C[C@H]2CC[C@@H](c3ccccc3)CC2)cc1-c1ccccc1C)C(=O)O [Example 790]	88%
CSCC[C@H](NC(=O)c1ccc(/C=C/c2ccccc2)cc1-c1ccccc1C)C(=O)O [Example 791]	53%
CSCC[C@H](NC(=O)c1ccc(CCc2cccc(-c3ccccc3)c2)cc1-c1ccccc1C)C(=O)[O-].[Li+] [Example 793]	94%
CSCC[C@H](NC(=O)c1ccc(COC2CCN(C(=O)OC(C)(C)C)CC2)cc1-c1ccccc1C)C(=O)[O-].[Li+] [Example 808]	88%
CSCC[C@H](NC(=O)c1ccc(COC2(Cc3ccccc3)CCN(C(=O)OC(C)(C)C)CC2)cc1-c1ccccc1C)C(=O)[O-].[Li+] [Example 809]	78%

Results, then the compound that gave them:

% inhibition of farnesyltransferase	SMILES
79%	CSCC[C@H](NC(=O)c1ccc(S(=O)(=O)NCCC2CCCCC2)cc1-c1ccccc1C)C(=O)O [Example 772]
32%	CSCC[C@H](NC(=O)c1ccc(S(=O)(=O)NCCN2CCOCC2)cc1-c1ccccc1C)C(=O)O [Example 775]
83%	CSCC[C@H](NC(=O)c1ccc(S(=O)(=O)NCCCn2ccnc2)cc1-c1ccccc1C)C(=O)O [Example 777]
90%	CSCC[C@H](NC(=O)c1ccc(COC2CCN(Cc3ccccc3)CC2)cc1-c1ccccc1C)C(=O)O [Example 807]

Same assay, conditions: at 1 × 10^-6 M; read-out: % inhibition of farnesyltransferase

inhibition at 1 µM	SMILES
88%	CCSC[C@H](CC1CCCCC1)NCc1ccc(C(=O)N[C@@H](CCSC)C(=O)OCOC(=O)C(C)(C)C)c(-c2ccccc2C)c1 [Example 764, hydrochloride salt]
76%	CCSC[C@H](CC1CCCCC1)NCc1ccc(C(=O)N(C)[C@@H](CCSC)C(=O)O)c(-c2ccccc2C)c1 [Example 765, lithium salt]
96%	CSCC[C@H](NC(=O)c1ccc(CN(Cc2ccc(C(F)(F)F)cc2)c2ccccc2)cc1-c1ccccc1C)C(=O)O [Example 782, N-[4-N-(N-phenyl-N-(4-trifluoromethylbenzyl)aminomethyl)-2-(2-methylphenyl)-benzoyl]methionine lithium salt]

Same assay, conditions: at 1 × 10^-7 M

SMILES	% inhibition of farnesyltransferase
CSCC[C@H](NC(=O)c1ccc(C=Cc2cncs2)cc1-c1ccccc1C)C(=O)[O-].[Li+] [Example 785]	96%
CSCC[C@H](NC(=O)c1ccc(COc2ccc(Oc3ccccc3)cc2)cc1-c1ccccc1C)C(=O)[O-].[Li+] [Example 795]	87%

Same assay, conditions: at 1 × 10^-7 M; read-out: % inhibition of farnesyltransferase

inhibition at 0.1 µM	SMILES
90%	CSCC[C@H](NC(=O)c1ccc(CN(c2ccccc2)S(=O)(=O)c2ccccc2)cc1-c1ccccc1C)C(=O)O [Example 769, N-[4-N-(N-phenyl-N-benzenesulfonylaminomethyl)-2-(2-methylphenyl)benzoyl]methionine lithium salt]
91%	CSCC[C@H](NC(=O)c1ccc(CN(c2ccccc2)S(=O)(=O)c2ccc(C)cc2)cc1-c1ccccc1C)C(=O)O [Example 770, N-[4-N-(N-phenyl-N-toluenesulfonylaminomethyl)-2-(2-methylphenyl)benzoyl]methionine lithium salt]
91%	CSCC[C@H](NC(=O)c1ccc(CN(Cc2ccc(Cl)cc2)c2ccccc2)cc1-c1ccccc1C)C(=O)O [Example 781, N-[4-N-(N-phenyl-N-(4-chlorobenzyl)aminomethyl)-2-(2-methylphenyl)benzoyl]methionine lithium salt]

Same assay, conditions: at 1 × 10^-8 M; read-out: % inhibition of farnesyltransferase

SMILES	inhibition at 0.01 µM
CSCC[C@H](NC(=O)c1ccc(CN(CCC2CCCCC2)C(=O)c2ccccc2)cc1-c1ccccc1C)C(=O)O [Example 762, N-[4-N-Benzoyl-N-2-cyclohexylethylaminomethyl-2-(2-methylphenyl)benzoyl]methionine lithium salt]	84%
CSCC[C@H](NC(=O)c1ccc(CN(CCC2CCCCC2)C(=O)OC(C)(C)C)cc1-c1ccccc1C)C(=O)O [Example 763, N-[4-N-t-Butyloxycarbonyl-N-2-cyclohexylethylaminomethyl-2-(2-methylphenyl)benzoyl]methionine lithium salt]	92%
COc1cccc(CN(Cc2ccc(C(=O)N[C@@H](CCSC)C(=O)O)c(-c3ccccc3C)c2)c2ccccc2)c1 [Example 779, N-[4-N-(N-phenyl-N-(3-methoxybenzyl)aniinomethyl)-2-(2-methylphenyl)benzoyl]methionine lithium salt]	70%

Results, then the compound that gave them:

inhibition at 0.01 µM	SMILES
95%	CSCC[C@H](NC(=O)c1ccc(CN[C@H](CSC2CCCCC2)CC2CCCCC2)cc1-c1ccccc1C)C(=O)O [Example 766, lithium salt]
97%	CSCC[C@H](NC(=O)c1ccc(CN[C@H](CSc2ccccc2C)CC2CCCCC2)cc1-c1ccccc1C)C(=O)O [Example 767, lithium salt]
71%	CSCC[C@H](NC(=O)c1ccc(CN(c2ccccc2)S(=O)(=O)c2ccc(C(F)(F)F)cc2)cc1-c1ccccc1C)C(=O)O [Example 780, N-[4-N-(N-phenyl-N-(4-trifluoromethylbenzenesulfonyl)aminomethyl)-2-(2-methylphenal)-benzoyl]methionine lithium salt]

Same assay, conditions: read-out: % inhibition of farnesyltransferase

SMILES	inhibition at 1 µM
CCOC(=O)N1CCC(NCc2ccc(C(=O)N[C@@H](CCSC)C(=O)O)c(-c3ccccc3C)c2)CC1 [Example 806, N-[4-(1-ethoxycarbonylpiperidin-4-ylaminomethyl)-2-(2-methylphenyl)benzoyl]methionine lithium salt]	72%
